Source: patent publication US20110257245A1, “METHODS OF IDENTIFYING REGULATORS OF CELLULAR PROTEOSTASIS” (The Board of Trustees of the Leland Stanford Junior …, priority 2010, published 2011)
Where a SMILES comes first, the peptide text is derived from it. The star is where a group is joined. Cbz = O=C(OCc1ccccc1)*

B1: [35S]PY-Sic1(Ubn): [35S]-labeled polyubiquitinated PY-Sic1 model substrate of the 26S proteasome (protein, UniProt P38634 1-284, looked up)
Protein SIC1: MTPSTPPRSRGTRYLAQPSGNTSSSALMQGQKTPQKPSQNLVPVTPSTTKSFKNAPLLAPPNSNMGMTSPFNGLTSPQRSPFPKSSVKRTLFQFESHDNGTVREEQEPLGRVNRILFPTQQNVDIDAAEEEEEGEVLLPPSRPTSARQLHLSLERDEFDQTHRKKIIKDVPGTPSDKVITFELAKNWNNNSPKNDARSQESEDEEDIIINPVRVGKNPFASDELVTQEIRNERKRAMLRENPDIEDVITYVNKKGEVVEKRRLTDEEKRRFKPKALFQSRDQEH
modifications: 35S label, PY motif, polyubiquitinated
notes: [35S]-labeled polyubiquitinated PY-Sic1 model substrate of the 26S proteasome

Experiments:
[1] = system: HEK293 cells stably expressing GFP-CL1, UbG76V-GFP, Ub-R-GFP or cODC-GFP; experiment: Fluorescent proteasome reporters challenged with proteasome inhibitor; type: cell-based; conditions: 10 μM MG-132, all four reporters
Method: FIG. 6 depicts features of fluorescent proteasome reporters, used in embodiments of the present invention. Untransfected HEK293 cells, and cells stably expressing GFP-CL1, UbG76V-GFP, Ub-R-GFP or cODC-GFP were treated with 10 μM MG-132 and at the times indicated, mean GFP fluorescence was analyzed by flow cytometry (Panel A) or by fluorescence microscopy of living cells (Panel B). […] Cells were incubated overnight at the permissive temperature 32° C. (black bars), at 32° C. in the presence of 10 μM MG-132 (white bars) or at the non-permissive temperature 40° C. (grey bars). Mean GFP fluorescence was analyzed by flow cytometry, and plotted as relative fluorescence change. […] HEK293 cells stably expressing UbG76V-GFP or GFP were transiently transfected with httchFP, and analyzed as described in FIG. 1B. […] Htt(Q91)-chFP-specific GFP fluorescence is plotted for GFP (♦) and UbG76V-GFP expressing cells (▪).
Unless indicated, cells were harvested 72 hrs after transfection and analyzed with a Becton-Dickinson LSRII flow cytometer with a 488 nm and a 535 nm Laser (BD, Franklin Lakes, N.J.). To ensure a sufficient number of cells with elevated levels of the transfected protein, over 200,000 cells were analyzed per condition in a typical experiment. […] Raw flow cytometry data were analyzed using FlowJo (version 8.8.6, Tree Star) software. […]

26S proteasomes = experiment: In vitro Sic1 degradation assay; type: biochemical, rat
Method: The substrate degradation reaction was carried out at room temperature in 50-100 μL total volume containing 10 nM 26S, 1×ATP buffer, and 100 nM [35S]Sic1-Ubn. 5 μL reaction aliquots were removed at various time points and separated on a 4-20% gradient gel followed by autoradiography. Alternately, aliquots were added to 10% trichloroacetic acid (TCA) or ddH20 on ice for 30 min and 2 mg/mL bovine serum albumin as a carrier. Samples were centrifuged at 12,000×g for 30 min, and the supernatant removed for analysis by scintillation spectrometry. The percent of degradation was determined by dividing the measured counts after TCA precipitation by the total counts measured in ddH20. To assess the ubiquitin-dependence of degradation, [35S]Sic1-Ubn was pretreated with 10 nM Usp2 cc (Baker et al., 2005) for 30 min at 37° C. prior to the addition of proteasomes. To inhibit substrate degradation, 26S proteasomes were pretreated with 10 μM MG132 (Biomol) prior to the addition of substrate. The initial rate of degradation was determined by least-squares linear regression analyses of 5, 10, and 20 min time points using Sigmaplot. The dependence of the initial rate of degradation on substrate concentration was plotted, and the data fit to the Michaelis-Menten equation using Sigmaplot.

Row | Molecule | fluorescence of GFP-degron proteasome reporters [1] | effect on degradation of PY-Sic1(Ubn) by purified proteasomes (26S proteasomes; 10 μM MG132, 10 nM 26S, 100 nM substrate) | Km (26S proteasomes; 10 nM 26S proteasomes, read-out: Km of [35S]PY-Sic1(Ubn) degradation (Michaelis-Menten analysis)) [µM]
1 | CC(C)C[C@@H](C=O)NC(=O)[C@H](CC(C)C)NC(=O)[C@H](CC(C)C)NC(=O)OCc1ccccc1 [MG132] (Cbz-Leu-Leu-Leu-aldehyde) | diffuse time-dependent increases in cytoplasmic fluorescence | inhibited | –
2 | B1 | – | – | 0.0469 ± 0.0035
